Test results published in US20240148821A1, “PHARMACEUTICAL USE OF CYCLIC PEPTIDE COMPOUND” (CHUGAI SEIYAKU KABUSHIKI KAISHA, priority 2021, published 2024).
Numbered stars: 1 amine (or outer) side, 2 acyl side, 3 side chain; on linkers, the order of the positions; unused ones are H or OH. Bridge positions count the residues as written; N and C are the ends. Square brackets hold non-standard residues; d marks the D form. Peptide text beside a SMILES is read from it. * marks the point of attachment. hPhe(3,5-F2-4-CF3) = N[C@@H](CCc1cc(F)c(C(F)(F)F)c(F)c1)C(=O)O; hPhe(3-Cl-4-CF3) = N[C@@H](CCc1ccc(C(F)(F)F)c(Cl)c1)C(=O)O; hPhe(3-F,4-CF3) = N[C@@H](CCc1ccc(C(F)(F)F)c(F)c1)C(=O)O; NEtPhe(4-CF3) = CCN[C@@H](Cc1ccc(C(F)(F)F)cc1)C(=O)O; NMePhe(4-CF3) = CN[C@@H](Cc1ccc(C(F)(F)F)cc1)C(=O)O; NEtPhe(4-Me) = CCN[C@@H](Cc1ccc(C)cc1)C(=O)O; NMeAbu(4,4,4-F3) = CN[C@@H](CC(F)(F)F)C(=O)O; NMePhe(4-Cl) = CN[C@@H](Cc1ccc(Cl)cc1)C(=O)O; NMePhe(4-Me) = CN[C@@H](Cc1ccc(C)cc1)C(=O)O; hPhe(4-Cl) = N[C@@H](CCc1ccc(Cl)cc1)C(=O)O; NMedβ3hAla = C[C@H](CC(=O)[*:2])N(C)[*:1]; NMeAla(cPent) = CN[C@@H](CC1CCCC1)C(=O)O; NMeGly(cPent) = CN[C@H](C(=O)O)C1CCCC1; Pro(4,4-F2) = O=C(O)[C@@H]1CC(F)(F)CN1; NMehPhe = CN[C@@H](CCc1ccccc1)C(=O)O; NMeCha = CN[C@@H](CC1CCCCC1)C(=O)O; Hyp = O=C(O)[C@@H]1C[C@@H](O)CN1; NMeChg = CN[C@H](C(=O)O)C1CCCCC1; NMeI = CC[C@H](C)[C@H](NC)C(=O)O; NMeE = CN[C@@H](CCC(=O)O)C(=O)O; NMeD = CN[C@@H](CC(=O)O)C(=O)O; NMeL = CN[C@@H](CC(C)C)C(=O)O; NMeV = CN[C@H](C(=O)O)C(C)C; Azetidin(1-yl) = C1CN(*)C1; Morpholide = C1CN(*)CCO1; NMeA = CN[C@@H](C)C(=O)O; NMeAib = CNC(C)(C)C(=O)O; Piperidide = C1CCN(*)CC1; Pyrrolidide = C1CCN(*)C1; Ac5c = NC1(C(=O)O)CCCC1; Aze = O=C(O)[C@@H]1CCN1; Ac4c = NC1(C(=O)O)CCC1; Sar = CNCC(=O)O

What was measured:
[1] = target: protein-protein interaction between Kras and SOS1 (biotin-tagged human Kras loaded with GDP, His-tagged human SOS1) (Homo sapiens (Human), UniProt P01116, G12D); assay: Protein-protein interaction inhibition between Kras and SOS1 (KrasG12D-SOS PPI) using AlphaScreen; type: biochemical; conditions: AlphaScreen; biotin-tagged human Kras loaded with GDP, His-tagged human SOS1; read-out: KRAS G12D-SOS PPI IC50;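 also: kras produced in E. coli, Ni-coupled donor beads and streptavidin acceptor beads, excitation 680 nm with emission detected at 520–620 nm via singlet oxygen transfer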
[2] = tested on: Human pancreatic cancer cell line AsPC-1 (G12D mutation Kras); assay: AsPC-1 cell growth inhibition (AsPC-1 CGI); type: cell-based; conditions: read-out: AsPC-1 cell growth inhibition, 50% growth inhibitory concentration (IC50 value); 96 hours, CellTiter-Glo, values classified in ranges

| Structure (SMILES) | IC50 [1] [nM] | IC50 [2] [nM] |
| --- | --- | --- |
| CC[C@H](C)[C@@H]1NC(=O)[C@H](CC(C)C)N(C)C(=O)C[C@@H](C(=O)N2CCOCC2)N(C)C(=O)[C@H]([C@@H](C)CC)N(C)C(=O)C2(CCCC2)NC(=O)[C@@H]2CC(F)(F)CN2C(=O)[C@H](CCc2ccc(C(F)(F)F)c(Cl)c2)NC(=O)CN(C)C(=O)[C@H](Cc2ccc(C(F)(F)F)cc2)N(C)C(=O)[C@@H]2CCN2C(=O)[C@H](C)N(C)C1=O [Compound 1311] ([NMeL]I[NMeA][Aze][NMePhe(4-CF3)][Sar][hPhe(3-Cl-4-CF3)][Pro(4,4-F2)][Ac5c][NMeI][NMeD]-Morpholide; lactam N-11) | 0.51 | ≤ 20 |
| CC[C@H](C)[C@@H]1NC(=O)[C@H](CC(C)C)N(C)C(=O)C[C@@H](C(=O)N2CCCCC2)N(C)C(=O)[C@H](C2CCCCC2)N(C)C(=O)C2(CCCC2)NC(=O)[C@H](CCC(=O)NC)N(C)C(=O)[C@H](CCc2ccc(C(F)(F)F)c(Cl)c2)NC(=O)CN(C)C(=O)[C@H](CC2CCCCC2)N(C)C(=O)CN(C)C(=O)CN(C)C1=O [Compound 590] ([NMeL]I[Sar][Sar][NMeCha][Sar][hPhe(3-Cl-4-CF3)][NMeE](NHMe)[Ac5c][NMeChg][NMeD]-Piperidide; lactam N-11) | 1.4 | > 500 |
| CC[C@H](C)[C@@H]1NC(=O)[C@H](CC(C)C)N(C)C(=O)C[C@@H](C)N(C)C(=O)[C@H](CC(C)C)NC(=O)C(C)(C)N(C)C(=O)[C@H](CC(C)C)NC(=O)[C@H](CCc2ccc(C(F)(F)F)c(F)c2)NC(=O)CN(C)C(=O)[C@H](Cc2ccc(Cl)cc2)N(C)C(=O)CN(C)C(=O)CN(C)C1=O [Compound 797] (cyclo(I[Sar][Sar][NMePhe(4-Cl)][Sar][hPhe(3-F,4-CF3)]L[NMeAib]L[NMedβ3hAla][NMeL])) | 19 | > 500 |
| CC[C@H](C)[C@@H]1NC(=O)[C@H](CC2CCCC2)N(C)C(=O)C[C@@H](C(=O)N2CCC2)N(C)C(=O)[C@H](C2CCCC2)N(C)C(=O)C2(CCCC2)NC(=O)[C@@H]2CCCN2C(=O)[C@H](CCc2ccc(C(F)(F)F)c(Cl)c2)NC(=O)CN(C)C(=O)[C@H](CC2CCCCC2)N(C)C(=O)[C@@H]2CCN2C(=O)[C@H](C)N(C)C1=O [Compound 1199] ([NMeAla(cPent)]I[NMeA][Aze][NMeCha][Sar][hPhe(3-Cl-4-CF3)]P[Ac5c][NMeGly(cPent)][NMeD]-{Azetidin(1-yl)}; lactam N-11) | 0.7 | ≤ 20 |
| CC[C@H](C)[C@@H]1NC(=O)[C@H](CC(C)C)N(C)C(=O)C[C@@H](C(=O)N2CCCC2)N(C)C(=O)[C@H]([C@@H](C)CC)N(C)C(=O)C2(CCCC2)NC(=O)[C@@H]2CCCN2C(=O)[C@H](CCc2ccc(C(F)(F)F)c(Cl)c2)NC(=O)CN(C)C(=O)[C@H](Cc2ccc(C)cc2)N(C)C(=O)[C@@H]2CCN2C(=O)[C@H](C)N(C)C1=O [Compound 1645] ([NMeL]I[NMeA][Aze][NMePhe(4-Me)][Sar][hPhe(3-Cl-4-CF3)]P[Ac5c][NMeI][NMeD]-Pyrrolidide; lactam N-11) | 1 | ≤ 20 |
| CC[C@H](C)[C@@H]1NC(=O)[C@H](C)N(C)C(=O)C[C@@H](C)N(C)C(=O)[C@H](CC(C)C)NC(=O)C(C)(C)N(C)C(=O)[C@H](CC(C)C)NC(=O)[C@H](CCc2ccc(C(F)(F)F)c(Cl)c2)NC(=O)CN(C)C(=O)[C@H](Cc2ccc(C(F)(F)F)cc2)N(C)C(=O)CN(C)C(=O)CN(C)C1=O [Compound 1397] (cyclo(I[Sar][Sar][NMePhe(4-CF3)][Sar][hPhe(3-Cl-4-CF3)]L[NMeAib]L[NMedβ3hAla][NMeA])) | 6.4 | > 500 |
| CCO[C@@H]1C[C@H]2C(=O)NC3(CCCC3)C(=O)N(C)[C@@H](C3CCCCC3)C(=O)N(C)[C@H](C(=O)N3CCCC3)CC(=O)N(C)[C@@H](CC(F)(F)F)C(=O)N[C@@H]([C@@H](C)CC)C(=O)N(C)CC(=O)N(C)CC(=O)N(C)[C@@H](Cc3ccc(C(F)(F)F)cc3)C(=O)N(C)CC(=O)N[C@@H](CCc3cc(F)c(C(F)(F)F)c(F)c3)C(=O)N2C1 [Compound 1271] ([NMeAbu(4,4,4-F3)]I[Sar][Sar][NMePhe(4-CF3)][Sar][hPhe(3,5-F2-4-CF3)][Hyp](Et)[Ac5c][NMeChg][NMeD]-Pyrrolidide; lactam N-11) | 0.49 | ≤ 20 |
| CCO[C@@H]1C[C@H]2C(=O)NC3(CCCC3)C(=O)N(C)[C@@H](C3CCCCC3)C(=O)N(C)[C@H](C(=O)N3CCOCC3)CC(=O)N(C)[C@@H](CC(F)(F)F)C(=O)N[C@@H]([C@@H](C)CC)C(=O)N(C)CC(=O)N(C)CC(=O)N(C)[C@@H](Cc3ccc(C(F)(F)F)cc3)C(=O)N(C)CC(=O)N[C@@H](CCc3cc(F)c(C(F)(F)F)c(F)c3)C(=O)N2C1 [Compound 1297] ([NMeAbu(4,4,4-F3)]I[Sar][Sar][NMePhe(4-CF3)][Sar][hPhe(3,5-F2-4-CF3)][Hyp](Et)[Ac5c][NMeChg][NMeD]-Morpholide; lactam N-11) | 0.51 | ≤ 20 |
| CCO[C@@H]1C[C@H]2C(=O)NC3(CCCC3)C(=O)N(C)[C@@H](C3CCCC3)C(=O)N(C)[C@H](C(=O)N(C)C)CC(=O)N(C)[C@@H](CC(C)C)C(=O)N[C@@H]([C@@H](C)CC)C(=O)N(C)[C@@H](C)C(=O)N3CC[C@H]3C(=O)N(C)[C@@H](CC3CCCCC3)C(=O)N(C)CC(=O)N[C@@H](CCc3ccc(C(F)(F)F)c(F)c3)C(=O)N2C1 [Compound 1231] ([NMeL]I[NMeA][Aze][NMeCha][Sar][hPhe(3-F,4-CF3)][Hyp](Et)[Ac5c][NMeGly(cPent)][NMeD]-NMe2; lactam N-11) | 0.59 | ≤ 20 |
| CC[C@H](C)[C@@H]1NC(=O)[C@H](CC(C)C)N(C)C(=O)C[C@@H](C(=O)N2CCC2)N(C)C(=O)[C@H](C2CCCC2)N(C)C(=O)C2(CCCC2)NC(=O)[C@@H]2CCCN2C(=O)[C@H](CCc2ccc(C(F)(F)F)c(Cl)c2)NC(=O)CN(C)C(=O)[C@H](Cc2ccc(C)cc2)N(CC)C(=O)[C@@H]2CCN2C(=O)[C@H](C)N(C)C1=O [Compound 506] ([NMeL]I[NMeA][Aze][NEtPhe(4-Me)][Sar][hPhe(3-Cl-4-CF3)]P[Ac5c][NMeGly(cPent)][NMeD]-{Azetidin(1-yl)}; lactam N-11) | 0.68 | ≤ 20 |
| CC[C@H](C)[C@@H]1NC(=O)[C@H](CC(C)C)N(C)C(=O)C[C@@H](C(=O)N2CCOCC2)N(C)C(=O)[C@H](C2CCCC2)N(C)C(=O)C2(CCCC2)NC(=O)[C@@H]2CCCN2C(=O)[C@H](CCc2ccc(C(F)(F)F)c(Cl)c2)NC(=O)CN(C)C(=O)[C@H](C2CCCC2)N(C)C(=O)[C@@H]2CCN2C(=O)[C@H](C)N(C)C1=O [Compound 302] ([NMeL]I[NMeA][Aze][NMeGly(cPent)][Sar][hPhe(3-Cl-4-CF3)]P[Ac5c][NMeGly(cPent)][NMeD]-Morpholide; lactam N-11) | 0.68 | ≤ 20 |
| CC[C@H](C)[C@@H]1NC(=O)[C@H](CC(C)C)N(C)C(=O)C[C@@H](C(=O)N2CCCCC2)N(C)C(=O)[C@H](CC2CCCCC2)N(C)C(=O)C2(CCCC2)NC(=O)[C@@H]2CCCN2C(=O)[C@H](CCc2ccc(C(F)(F)F)c(Cl)c2)NC(=O)CN(C)C(=O)[C@H](CC2CCCCC2)N(C)C(=O)[C@@H]2CCN2C(=O)[C@H](C)N(C)C1=O [Compound 87] ([NMeL]I[NMeA][Aze][NMeCha][Sar][hPhe(3-Cl-4-CF3)]P[Ac5c][NMeCha][NMeD]-Piperidide; lactam N-11) | 45 | > 500 |
| CC[C@H](C)[C@@H]1NC(=O)[C@H](C)N(C)C(=O)C[C@@H](C(=O)N2CCCCC2)N(C)C(=O)[C@H](C(C)C)N(C)C(=O)C2(CCCC2)NC(=O)[C@@H]2CCCN2C(=O)[C@H](CCc2ccc(C(F)(F)F)c(Cl)c2)NC(=O)CN(C)C(=O)[C@H](CC2CCCCC2)N(C)C(=O)[C@@H]2CCN2C(=O)[C@H](CCc2ccccc2)N(C)C1=O [Compound 1559] ([NMeA]I[NMehPhe][Aze][NMeCha][Sar][hPhe(3-Cl-4-CF3)]P[Ac5c][NMeV][NMeD]-Piperidide; lactam N-11) | 28 | > 500 |
| CC[C@H](C)[C@@H]1NC(=O)[C@H](C)N(C)C(=O)C[C@@H](C(=O)N2CCCCC2)N(C)C(=O)[C@H](C(C)C)N(C)C(=O)C2(CCCC2)NC(=O)[C@@H]2CCCN2C(=O)[C@H](CCc2ccc(Cl)cc2)NC(=O)CN(C)C(=O)[C@H](CC2CCCCC2)N(C)C(=O)[C@@H]2CCN2C(=O)[C@H](C)N(C)C1=O [Compound 903] ([NMeA]I[NMeA][Aze][NMeCha][Sar][hPhe(4-Cl)]P[Ac5c][NMeV][NMeD]-Piperidide; lactam N-11) | 24 | > 500 |
| CCO[C@@H]1C[C@H]2C(=O)NC3(CCC3)C(=O)N(C)[C@@H](C3CCCC3)C(=O)N(C)[C@H](C)CC(=O)N(C)[C@@H](CC(C)C)C(=O)N[C@@H]([C@@H](C)CC)C(=O)N(C)[C@@H](C)C(=O)N3CC[C@H]3C(=O)N(CC)[C@@H](Cc3ccc(C(F)(F)F)cc3)C(=O)N(C)CC(=O)N[C@@H](CCc3ccc(C(F)(F)F)c(Cl)c3)C(=O)N2C1 [Compound 594] (cyclo([Ac4c][NMeGly(cPent)][NMedβ3hAla][NMeL]I[NMeA][Aze][NEtPhe(4-CF3)][Sar][hPhe(3-Cl-4-CF3)][Hyp](Et))) | 0.54 | ≤ 20 |
| CC[C@H](C)[C@@H]1NC(=O)[C@H](CC(C)C)N(C)C(=O)C[C@@H](C(=O)N2CCOCC2)N(C)C(=O)[C@H]([C@@H](C)CC)N(C)C(=O)C2(CCCC2)NC(=O)[C@@H]2CCCN2C(=O)[C@H](CCc2ccc(C(F)(F)F)c(Cl)c2)NC(=O)CN(C)C(=O)[C@H](C2CCCC2)N(C)C(=O)[C@@H]2CCN2C(=O)[C@H](C)N(C)C1=O [Compound 381] ([NMeL]I[NMeA][Aze][NMeGly(cPent)][Sar][hPhe(3-Cl-4-CF3)]P[Ac5c][NMeI][NMeD]-Morpholide; lactam N-11) | 1.6 | ≤ 20 |
